Measurements as given in US20230346827A1 (priority 2020, published 2023).
Marks after values point to notes of the source that are not given here.

System: rats subjected to sTBI
Test: sTBI rats, LMW-DS 15 mg/kg s.c.: HPLC of brain purine-pyrimidine/energy metabolites (Example 3)
Format: in vivo, rat
Procedure: The experimental protocol used in this study was approved by the Ethical Committee of the Catholic University of Rome, according to international standards and guidelines for animal care. Male Wistar rats of 300-350 g body weight (b.w.) were fed with standard laboratory diet and water ad libitum in a controlled environment.
They were divided into three groups: • 1) n = 6 animals subjected to sTBI, with drug administration after 30 minutes and sacrifice at 2 days post-TBI (Acute phase 1) • 2) n= 6 animals subjected to sTBI, with drug administration after 30 minutes and sacrifice at 7 days post-TBI (Acute phase 2). • 3) n= 6 animals subjected to sTBI, with drug administration after 3 days and sacrifice at 7 days post-TBI (Chronic phase).
As the anesthetic mixture, animals received 35 mg/kg b.w. ketamine and 0.25 mg/kg b.w. midazolam by i.p. injection. sTBI was induced by dropping a 450 g weight from 2 m height on to the rat head that had been protected by a metal disk previously fixed on the skull, according to the “weight drop” impact acceleration model (Marmarou et al., J Neurosurg. 1994; 80: 291-300). […] At the end of each period of treatment, rats were anesthetized again and then immediately sacrificed.
The drug treatment was a subcutaneous injection of 0.5 ml of LMW-DS (ILB®, Tikomed AB, Viken, Sweden, WO 2016/076780; 15 mg/kg) and administered according to the aforementioned schematic protocol.
An in vivo craniectomy was performed in all animals during anesthesia, after carefully removing the rat’s skull, the brain was exposed and removed with a surgical spatula and quickly dropped in liquid nitrogen. After the wet weight (w.w.) determination, tissue preparation was affected as previously disclosed (Tavazzi et al., Neurosurgery. 2005; 56: 582-589; Vagnozzi et al., Neurosurgery. 2007; 61: 379-388; Tavazzi et al., Neurosurgery. 2007; 61: 390-395; Amorini et al., J Cell Mol Med. 2017; 21: 530-542.). Briefly, whole brain homogenization was performed with 7 ml of ice-cold, nitrogen-saturated, precipitating solution composed by CH3CN + 10 mM KH2PO4, pH 7.40, (3:1; v:v), and using an Ultra-Turrax set at 24,000 rpm/min (Janke & Kunkel, Staufen, Germany). After centrifugation at 20,690 x g, for 10 min at 4° C., the clear supernatants were saved, pellets were supplemented with 3 ml of the precipitating solution and homogenized again as described above. A second centrifugation was performed (20,690 x g, for 10 min at 4° C.), pellets were saved, supernatants combined with those previously obtained, extracted by vigorous agitation with a double volume of HPLC-grade CHCl3 and centrifuged as above. The upper aqueous phases containing water-soluble low-molecular weight compounds were collected, subjected to chloroform washings for two more times (this procedure allowed the removal of all the organic solvent and of any lipid soluble compound from the buffered tissue extracts), adjusted in volumes with 10 mM KH2PO4, pH 7.40, to have ultimately aqueous 10% tissue homogenates and saved at -80° C. until assayed.
Aliquots of each deproteinized tissue samples were filtered through a 0.45 µm HV Millipore filter and loaded (200 µl) onto a Hypersil C-18, 250 × 4.6 mm, 5 µm particle size column, provided with its own guard column (Thermo Fisher Scientific, Rodano, Milan, Italy) and connected to an HPLC apparatus consisting of a Surveyor System (Thermo Fisher Scientific, Rodano, Milan, Italy) with a highly sensitive diode array detector (equipped with a 5 cm light path flow cell) and set up between 200 and 300 nm wavelength. Data acquisition and analysis were performed by a PC using the ChromQuest® software package provided by the HPLC manufacturer. […]

[1] = Acute phase 1: drug 30 min, sacrifice 2 d post-TBI
[2] = Acute phase 2: drug 30 min, sacrifice 7 d post-TBI
[3] = Chronic phase: drug 3 d, sacrifice 7 d post-TBI
[4] = after administration of LMW-DS 15 mg/kg

sodium salt of dextran sulfate [LMW-DS] was tested, and the ASCORBIC ACID [1] was 3733.10±277.88^a,d nmol/g (w.w.), the CDP choline [1] was 10.93±3.22^b,h nmol/g (w.w.) and the CMP [1] was 30.12±9.97^a,h nmol/g (w.w.). For the same substance, the CREATININE [1] was 24.55±3.20^b,g,i nmol/g (w.w.), the CYTIDINE [1] was 15.40 ± 3.04 nmol/g (w.w.) and the CYTOSINE [1] was 17.69±2.50^b,d nmol/g (w.w.). The GSH [1] was 2649.50±397.31^a,d nmol/g (w.w.), the GUANINE [1] was 4.80±1.24^b nmol/g (w.w.) and the GUANOSINE [1] was 20.71 ± 5.66 nmol/g (w.w.). The HYPOXANTHINE [1] was 14.47±2.87^a nmol/g (w.w.), the INOSINE [1] was 92.55±31.20^c nmol/g (w.w.) and the MDA [1] was 12.47±2.09^a,c,g nmol/g (w.w.). The NO2 [1] was 216.03±41.74^a nmol/g (w.w.), the URACIL [1] was 14.56 ± 5.44 nmol/g (w.w.) and the URIC ACID [1] was 23.62±3.77^a,d,h nmol/g (w.w.). The URIDINE [1] was 76.35±12.85^a,c nmol/g (w.w.), the XANTHINE [1] was 9.46±2.34^d nmol/g (w.w.) and the adenine [1] was 44.82±6.31 ^a,d,g nmol/g (w.w.). For the same substance, the thymidine [1] was 0.69 ± 0.11 nmol/g (w.w.), the β-PSEUDOURIDINE [1] was 6.65±1.30^g,i nmol/g (w.w.) and the ASCORBIC ACID [2] was 3512.58±224.62^a,e nmol/g (w.w.). The CDP choline [2] was 6.91 ± 1.86 nmol/g (w.w.), the CMP [2] was 15.68±2.12^f,j nmol/g (w.w.) and the CREATININE [2] was 37.27±5.82^a,e,j nmol/g (w.w.). The CYTIDINE [2] was 16.18±4.21^e nmol/g (w.w.), the CYTOSINE [2] was 15.70±4.10^f nmol/g (w.w.) and the GSH [2] was 2821.50±242.82^a,e nmol/g (w.w.). The GUANINE [2] was 4.73 ± 1.07 nmol/g (w.w.), the GUANOSINE [2] was 17.90±3.24^j nmol/g (w.w.) and the HYPOXANTHINE [2] was 12.90±2.58^a,j nmol/g (w.w.). For the same substance, the INOSINE [2] was 85.52±20.36^e nmol/g (w.w.), the MDA [2] was 4.82±1.73^a,e,i nmol/g (w.w.) and the NO2 [2] was 226.40±30.95^b nmol/g (w.w.). The URACIL [2] was 19.40±7.52^a,e nmol/g (w.w.), the URIC ACID [2] was 19.17±2.15^a,h,i nmol/g (w.w.) and the URIDINE [2] was 63.02±9.66^b,e nmol/g (w.w.). The XANTHINE [2] was 10.41±2.11^f nmol/g (w.w.), the adenine [2] was 58.16±6.36^a,f nmol/g (w.w.) and the thymidine [2] was 0.49±0.20^f nmol/g (w.w.). For the same substance, the β-PSEUDOURIDINE [2] was 13.26±3.16^a,e,j nmol/g (w.w.), the ASCORBIC ACID [3] was 3375.03±856.41 ^a,e nmol/g (w.w.) and the CDP choline [3] was 8.37 ± 2.19 nmol/g (w.w.). For the same substance, the CMP [3] was 20.51±3.73^a,f nmol/g (w.w.), the CREATININE [3] was 51.25±10.17^a,f nmol/g (w.w.) and the CYTIDINE [3] was 14.71±2.83^e nmol/g (w.w.). For the same substance, the CYTOSINE [3] was 15.58±2.50^b,f nmol/g (w.w.), the GSH [3] was 2608.67±358.07^a,e nmol/g (w.w.) and the GUANINE [3] was 5.31±1.04^b nmol/g (w.w.). For the same substance, the GUANOSINE [3] was 28.87±7.60^a,f nmol/g (w.w.), the HYPOXANTHINE [3] was 17.97±4.49^a nmol/g (w.w.) and the INOSINE [3] was 105.81±25.57^f nmol/g (w.w.). For the same substance, the MDA [3] was 11.62±3.90^a,e nmol/g (w.w.), the NO2 [3] was 217.67±55.04^a nmol/g (w.w.) and the URACIL [3] was 16.57±2.99^a f nmol/g (w.w.). For the same substance, the URIC ACID [3] was 27.77±3.60^a nmol/g (w.w.), the URIDINE [3] was 63.28±3.37^f nmol/g (w.w.) and the XANTHINE [3] was 9.35±0.83^f nmol/g (w.w.). For the same substance, the adenine [3] was 52.94±8.59^a,f nmol/g (w.w.), the thymidine [3] was 0.71 ± 0.11 nmol/g (w.w.) and the β-PSEUDOURIDINE [3] was 18.62±2.80^a nmol/g (w.w.). For the same substance, the nitrate concentrations (acute and chronic phases of sTBI) was “significantly decreased”, the MDA levels [4] was “significant reduction” and the “ascorbic acid and GSH levels” value [4] was “significant improvement”. For the same substance, the “NAA and its substrates, levels” value (after sTBI, LMW-DS 15 mg/kg) was “significant improvements”.
